Reference: patent US12461089B2, “Olfactory receptor involved in the perception of musk fragrance and the use thereof” (ChemoSensoryX Biosciences SA, priority 2017, dated 2025)
Where two headings read alike, the source gives them in different places.

Tests used:
Format in all cases: cell-based
OR5A2_variant 1 = target: T1, OR5A2_variant 1 (Homo sapiens, UniProt Q8NGI9); assay: Luciferase reporter concentration-response analysis on OR5A2_variant 1
T1 construct: expressed in transfected cells; host or cells: HEK293T-RTP1A1/RTP2
T1 sequence (Q8NGI9 1-324): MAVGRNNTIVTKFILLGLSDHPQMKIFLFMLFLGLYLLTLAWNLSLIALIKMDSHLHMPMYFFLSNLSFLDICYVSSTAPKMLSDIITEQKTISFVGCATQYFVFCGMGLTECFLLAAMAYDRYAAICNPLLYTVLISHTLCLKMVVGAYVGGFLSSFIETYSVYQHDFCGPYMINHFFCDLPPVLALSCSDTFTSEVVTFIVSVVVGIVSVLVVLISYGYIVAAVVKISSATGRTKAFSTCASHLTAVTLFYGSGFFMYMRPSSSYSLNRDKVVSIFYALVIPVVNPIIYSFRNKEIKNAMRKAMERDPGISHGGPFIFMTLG
Protocol: (§1) HEK293T-RTP1A1/RTP2 cells were maintained in minimal essential medium (EMEM, Lonza) containing 10% fetal bovine serum (M10). These cells were generated by transfecting HEK293T with an expression vector containing the sequences of the chaperone proteins RTP1A1 and RTP2 and a resistance gene to puromycin, using Lipofectamine 2000.
(§2) Odorant molecules were diluted at a concentration of 1 mole/liter (M) into dimethyl sulfoxide (DMSO) to generate stock solutions.
(§3) For concentration-response analysis, serial dilutions of the tested molecules were prepared from stock solutions in EMEM plated into 96-well plates.
(§4) For the initial deorphanisation screening and dose-response analysis, a Luciferase-based gene reporter assay (Promega, Leiden, The Nederlands) was used. Briefly, cells were platted on Poly-D-lysine-coated 96-well and transfected with a plasmid containing the CRE-luciferase and a plasmid containing the olfactory receptor. Sixteen hours after transfection, the culture medium was replaced by serum-free EMEM containing the tested compounds at a determined concentration. After four hours of incubation at 37° C. degree, cells were lysed and processed for luminescence measurement. Luminescene emission was recorded. Results were expressed as luciferase activity (Relative […] Unit (RLU)) or as percentage of the response induced by 10 μM of the adenylate cyclase activator Forskolin. An empty plasmid is used as negative control.
(§5) 35 musk compounds from the four structurally different chemical groups previously described were tested in concentration-response analyses (Table 2). In each experiment, an empty vector was used as negative control (pEFIBRHO). […] Full results including the calculated EC50 are given in Table 2; “non active” represent negative experiments, no activation after testing.

OR5AN1 = target: T2, OR5AN1 (Homo sapiens, UniProt Q8NGI8, E89G); assay: Luciferase reporter concentration-response analysis on OR5AN1; details: concentration-response analysis, luciferase reporter, values given as negative (log) numbers, Non Active = no activation after testing; for EC50: read-out: calculated EC50, OR5AN1 (converted)
T2 construct: expressed in transfected cells; host or cells: HEK293T-RTP1A1/RTP2
T2 sequence (Q8NGI8 1-311 E89G): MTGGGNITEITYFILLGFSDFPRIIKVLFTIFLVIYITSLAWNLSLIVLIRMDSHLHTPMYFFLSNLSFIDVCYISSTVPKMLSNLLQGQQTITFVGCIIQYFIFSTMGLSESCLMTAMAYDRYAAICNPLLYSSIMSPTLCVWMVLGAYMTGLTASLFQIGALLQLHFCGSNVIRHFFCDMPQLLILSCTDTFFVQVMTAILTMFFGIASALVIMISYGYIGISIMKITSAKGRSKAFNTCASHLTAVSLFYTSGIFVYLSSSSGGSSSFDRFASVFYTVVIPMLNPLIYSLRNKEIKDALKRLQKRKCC
Protocol: as §1, with “2000. The recombinant cell population, used in these experiments, was selected by adding 10 μg/ml of puromycin into the culture medium and subsequently subcloned (WO 2014/191047 A1).” for “2000.”
as §2, §3, §4
In these analyses we also included ORs previously described as musk-specific receptors OR5AN1 (SEQ ID n° 7) (WO 2015/020158 A1, Shirasu et al. 2014 Neuron 81, 165-78, Sato-Akuhara N et al. 2016 J Neurosci. 36(16), 4482-91) and OR11A1 (SEQ ID n° 8) (WO 2016/201152 A1). […] Therefore, OR5A1 was included in the analyses. 35 musk compounds from the four structurally different chemical groups previously described were tested in concentration-response analyses (Table 2). In each experiment, an empty vector was used as negative control (pEFIBRHO). […] Full results including the calculated EC50 are given in Table 2; “non active” represent negative experiments, no activation after testing. […]

OR11A1 = target: T3, OR11A1 (Homo sapiens, UniProt Q9GZK7); assay: Luciferase reporter concentration-response analysis on OR11A1
T3 construct: expressed in transfected cells; host or cells: HEK293T-RTP1A1/RTP2
T3 sequence (Q9GZK7 1-315): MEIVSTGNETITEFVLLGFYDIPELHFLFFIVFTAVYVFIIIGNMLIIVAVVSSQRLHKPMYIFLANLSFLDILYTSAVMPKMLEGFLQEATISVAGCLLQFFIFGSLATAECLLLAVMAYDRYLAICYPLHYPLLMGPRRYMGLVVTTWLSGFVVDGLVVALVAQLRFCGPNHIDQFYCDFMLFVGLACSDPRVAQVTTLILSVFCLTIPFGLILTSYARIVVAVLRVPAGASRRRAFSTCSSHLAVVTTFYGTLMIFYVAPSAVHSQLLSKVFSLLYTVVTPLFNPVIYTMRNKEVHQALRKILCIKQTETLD
Protocol: as §1, §2, §3, §4, §5
These compounds were tested in concentration-response analysis in luciferase assays, as described previously. In each experiment, an empty vector was used as negative control (pEFIBRHO).

[1] = concentration-response analysis, luciferase reporter, values given as negative (log) numbers, read-out: calculated EC50, OR5A2 (converted)
[2] = concentration-response analysis, luciferase reporter, values given as negative (log) numbers, Non Active = no activation after testing, read-out: calculated EC50, OR11A1 (converted)

Row | Molecule | EC50 (OR5A2_variant 1) | EC50 (OR5A2_variant 1; [1]) | EC50 (OR5AN1) | further results
1 | C/C(=C\C(C)C)C(C)OC(C)(C)COC(=O)C1CC1 (centres unmarked) [Sylkolide] | 17.8 µM |  |  | 
2 | CC(=O)c1cc2c(cc1C)C(C)(C)C(C)C2(C)C (centres unmarked) [Phantolide] |  | 4.57 µM |  | EC50 (OR11A1; [2]): 7.59 µM
3 | c1ncc2c(n1)CCCCCCCCCC2 [Musk 77] |  | 5.13 µM |  | EC50 (OR11A1; [2]): 9.12 µM
4 | CC(=O)c1cc2c(cc1C)C(C)(C)C(C)C2C(C)C (centres unmarked) [traseolide] |  | 1.95 µM |  | EC50 (OR11A1; [2]): 7.08 µM
5 | Helvetolide |  |  |  | calculated EC50, OR5A2 (OR5A2_variant 1; concentration-response analysis, luciferase reporter, values given as negative (log) numbers): −3.86
6 | Cyclopenta- decanone |  |  |  | calculated EC50, OR5AN1 (OR5AN1): −4.95

The next lines start with results.

Row | EC50 (OR5A2_variant 1) | EC50 (OR5A2_variant 1; [1]) | EC50 (OR5AN1) | Molecule | further results
7 |  | 3.98 µM | 2.24 µM | O=C1CCCCCC/C=C\CCCCCCC1 [Globanone (Animusk)] | 
8 | 28.2 µM |  |  | C=C(C)C1CCC(C)=C1CC(C)(C)COC(=O)CC (centres unmarked) [cyclopentenyl propionate musk] | 
9 |  | 38 µM | 75.9 µM | O=C1CCCCCCCCCCC(=O)OCCO1 [Musk MC4] | 
10 |  | 43.7 µM | 87.1 µM | O=C1CCCCCCCCCCCCCCO1 [Thibetolide = Exaltolide] | 
11 | 19.5 µM |  | 417 µM | CC1C/C=C\CCCCCCCCC(=O)OCC1 (centres unmarked) [nirvanolide] | 
12 | 10.2 µM |  |  | CC1CC(C)(C)c2ccc(C=O)cc2C1(C)C (centres unmarked) [Fixal] | EC50 (OR11A1): 8.91 µM
